# Test results as given in patent US6573269B1, “Pyrimidine-2,4,6-trione light screening compositions” (Roche Vitamins Inc., priority 1999, dated 2003).
# Experiments:
# Type in all cases: physicochemical
# [1] = UV absorption (UV-A filter property); conditions: for UV extinction (ε) at absorption maximum: value in brackets after the UV maximum
# Description: The compounds of formula I have adsorption maxima in the range of 320 nm to 400 nm, the so called UV-A radiation.
# [2] = Photostability: irradiation in high dilution with a Hg-lamp (150 W from Hereus); conditions: irradiated in high dilution with a Hg-lamp (150 W)
# Protocol: A 100 ml three necked reaction flask equipped with a thermometer, a reflux condenser, and a magnetic stirrer under nitrogen atmosphere was charged with 1.1 g (5 mmol) of 4-(2-ethyl-hexyloxy)-phenylamine (Example 1b), 1.06 g (5 mmol) of 1,3-diisopropyl-pyrimidine-2,4,6-trione (Example 1c) and 11.1 g (75 mmol) of triethyl orthoformate in 10 ml of tetrahydrofuran. This mixture was refluxed for 18 hours followed by washing twice with water, dried with Na2SO4, and concentrated on a rotary evaporator. The raw product was recrystallized in ethanol to yield 0.84 g of yellowish crystals. M.p. 74-76° C., UV 355 nm (32,122).
# [3] = Measurement of solubility in cosmetic solvents Cétiol LC and Crodamol DA; conditions: oversaturated solution, overnight at 25° C., filtered, UV measurement in CH2Cl2
# Protocol: e) Measurement of solubility in Cétiol LC (cocoyl caprylate caprate) and Crodamol DA (diisopropyl adipate).
# After standing overnight at 25° C., the solution was filtered through a microfilter (Millipore, pore size 0.5 , μm), followed by UV measurement in CH2Cl2. The extinctions were compared with the extinctions of the pure compound.
Compound,UV absorption maximum [1] [nm],UV extinction (ε) at absorption maximum [1],photostability [2],solubility in Crodamol DA (diisopropyl adipate) [3],solubility in Cétiol LC (cocoyl caprylate caprate) [3]
"CCCCCCCC(=O)Oc1ccc(NC=C2C(=O)N(C(C)C)C(=O)N(C(C)C)C2=O)c(O)c1 [5-{[(2-hydroxy-4-capryloxy)-phenylamine])-methylene}-1,3-diisopropyl-pyrimidine-2,4,6-trione]",354,"25,813",,,
"CCCCC(CC)COc1ccc(NC=C2C(=O)N(C(C)C)C(=O)N(C(C)C)C2=O)cc1 (stereo not shown) [Example 1, 5-{[4-(2-Ethyl-hexyloxy)-phenylamine]-methylene}-1,3-diisopropyl-pyrimidine-2,4,6-trione]",355,"32,122",photostable,26.9%,15.5%
"C#CCOc1ccc(NC=C2C(=O)N(C(C)C)C(=O)N(C(C)C)C2=O)cc1 [Example 2, 5-{(4-Propargyloxy-phenylamine)-methylene}-1,3-diisopropyl-pyrimidine-2,4,6-trione]",352,"31,596",photostable,,
"C=C(COc1ccc(NC=C2C(=O)N(C(C)C)C(=O)N(C(C)C)C2=O)cc1)[Si](C)(O[Si](C)(C)C)O[Si](C)(C)C [Example 3, 5-{[4-(2-(1,3,3,3-tetramethyl-1-[(trimethylsilyl)-oxy]-disiloxanyl)-prop-2-enyloxy)-phenylamine]-methylene}-1,3-diisopropyl-pyrimidine-2,4,6-trione]",354,"31,520",excellent,unlimited,unlimited
"CC(C)N1C(=O)C(=CNc2ccc(O)cc2)C(=O)N(C(C)C)C1=O [Example 6, 5-{(4-Hydroxy-phenylamine)-methylene}-1,3-diisopropyl-pyrimidine-2,4,6-trione]",351,"27,911",photostable,3.6%,
"CC(C)N1C(=O)C(=CNc2ccc(O)cc2O)C(=O)N(C(C)C)C1=O [Example 7, 5-{(2,4-Dihydroxy-phenylamine)-methylene}-1,3-diisopropyl-pyrimidine-2,4,6-trione]",363,"23,564",photostable,4.1%,
"CCCCCCCC(=O)Oc1ccc(NC=C2C(=O)N(C(C)C)C(=O)N(C(C)C)C2=O)cc1 [Example 8, 5-{(4-Capryloxy-phenylamine)-methylene}-1,3-diisopropyl-pyrimidine-2,4,6-trione]",346,"33,768",photostable,18.5%,6.6%
CCCCCCCC(=O)Oc1ccc(NC=C2C(=O)N(C(C)C)C(=O)N(C(C)C)C2=O)c(OC(=O)CCCCCCC)c1 [Example 9 diester],351,"31,349",,,easily mixable with Cétiiol LC in any proportion
